Reference: the supplement of paper PMC10878532, “Sperm Toolbox—A selection of small molecules to study human spermatozoa” (PLOS ONE, 2024)
Where a name gives a salt, the structure may show the parent alone.

Tests used:
HepG2 = HepG2 toxicity (resazurin), effect normalised to DMSO (DMSO = 0); higher = more features changed / larger toxic effect; settings: incubation time: 70h incubation
HeLa [1] = experiment: HeLa toxicity: nuclei-count effect normalised to DMSO (DMSO = 0); higher = more features changed / larger toxic effect; settings: incubation time: 24h incubation
HeLa [2] = experiment: Cell Painting percent induction (share of features beyond 2 z-scores vs DMSO); higher = more features changed / larger toxic effect; extreme values may be limits of the assay; settings: incubation time: 24h incubation
human spermatozoa [3] = experiment: total motile sperm, percent change vs DMSO (non-capacitating); higher = more of the measured sperm population than DMSO, for viability, fewer PI-positive (dead) cells than DMSO
human spermatozoa [4] = experiment: viability fold change, 1 - (PI-positive fraction / DMSO median); higher = more of the measured sperm population than DMSO, for viability, fewer PI-positive (dead) cells than DMSO; settings: incubation time: 3h, non-capacitating
human spermatozoa [5] = experiment: progressively motile sperm, percent change vs DMSO (capacitating); higher = more of the measured sperm population than DMSO, for viability, fewer PI-positive (dead) cells than DMSO; settings: incubation time: 30min incubation
human spermatozoa [6] = experiment: hyperactivated motile sperm, percent change vs DMSO (capacitating); higher = more of the measured sperm population than DMSO, for viability, fewer PI-positive (dead) cells than DMSO; settings: incubation time: 30min incubation
human spermatozoa [7] = experiment: change in acrosome-reacted (PNA+) sperm vs DMSO, no agonist (capacitating); higher = more of the measured sperm population than DMSO, for viability, fewer PI-positive (dead) cells than DMSO; settings: incubation time: 3h
human spermatozoa [8] = experiment: acrosome-reacted (PNA+) sperm after agonist cocktail, percent change vs DMSO (capacitating); higher = more of the measured sperm population than DMSO, for viability, fewer PI-positive (dead) cells than DMSO; settings: incubation time: 3h, capacitating + agonist cocktail 1h
human spermatozoa [9] = experiment: progressively motile sperm, percent change vs DMSO (non-capacitating); higher = more of the measured sperm population than DMSO, for viability, fewer PI-positive (dead) cells than DMSO; extreme values may be limits of the assay
[10] = incubation time: 10min incubation, 9.99 µM
[11] = incubation time: 10min incubation, 29.9 µM
[12] = incubation time: 3h incubation, 9.99 µM
[13] = incubation time: 3h incubation, 29.9 µM
[14] = incubation time: 6h incubation, 9.99 µM
[15] = incubation time: 6h incubation, 29.9 µM
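Throughout, for progressively motile sperm, percent change vs DMSO (non-capacitating): pooled live human sperm from at least 3 donors, tracked by automated microscopy in 0.5 s time-lapse movies, compounds at 10 and 30 µM, versus median of 16 DMSO wells per plate.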
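Throughout, for total motile sperm, percent change vs DMSO (non-capacitating): sperm pooled from at least 3 donors, tracked in 0.5 s time-lapse movies by automated microscopy after 10 min, 3 h or 6 h with compound at 10 or 30 µM.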

Compound	HepG2 toxicity (HepG2; 10 µM)	HepG2 toxicity (HepG2; 30 µM)	HeLa toxicity: nuclei-count effect normalised (HeLa [1]; 9.99 µM)	HeLa toxicity: nuclei-count effect normalised (HeLa [1]; 29.9 µM)	Cell Painting percent induction (HeLa [2]; 9.99 µM)	Cell Painting percent induction (HeLa [2]; 29.9 µM)	total motile sperm (human spermatozoa [3]; [10])	total motile sperm (human spermatozoa [3]; [11])	total motile sperm (human spermatozoa [3]; [12])	total motile sperm (human spermatozoa [3]; [13])	total motile sperm (human spermatozoa [3]; [14])	total motile sperm (human spermatozoa [3]; [15])	viability fold change (human spermatozoa [4]; 9.99 µM)	viability fold change (human spermatozoa [4]; 29.9 µM)	progressively motile sperm (human spermatozoa [5]; 9.99 µM)	progressively motile sperm (human spermatozoa [5]; 29.9 µM)	hyperactivated motile sperm (human spermatozoa [6]; 9.99 µM)	hyperactivated motile sperm (human spermatozoa [6]; 29.9 µM)	change in acrosome-reacted (human spermatozoa [7]; 9.99 µM)	change in acrosome-reacted (human spermatozoa [7]; 29.9 µM)	acrosome-reacted (human spermatozoa [8]; 9.99 µM)	acrosome-reacted (human spermatozoa [8]; 29.9 µM)	progressively motile sperm (human spermatozoa [9]; [10])	progressively motile sperm (human spermatozoa [9]; [11])	progressively motile sperm (human spermatozoa [9]; [12])	progressively motile sperm (human spermatozoa [9]; [13])	progressively motile sperm (human spermatozoa [9]; [14])	progressively motile sperm (human spermatozoa [9]; [15])
Nc1ccc(-c2ccc3ncc4ccc(=O)n(-c5cccc(C(F)(F)F)c5)c4c3c2)cn1 [Torin 2]	97.2%	96%	83.4%	96.5%	4.68%	29.7%	-0.268%	1.3%	-8.49%	-9.72%	-12.1%	-16.1%	-0.979	-0.723	7.66%	15.1%	180%	16.9%	1.71%	1.79%	116%	129%	38.8%	34.7%	76.3%	50.7%	89.8%	47.4%
COc1cc2c(cc1OC)-c1c/c(=N\c3c(C)cc(C)cc3C)n(C)c(=O)n1CC2 [Trequinsin hydrochloride]	11.1%	40.3%	-1.54%	27.5%	0.036%	0.36%	-3.16%	-4.39%	-11.3%	-17.8%	-12.7%	-22.8%	-1.81	-1.99	8.14%	16.2%	192%	73.7%	1.55%	1.58%	102%	120%	33.3%	28.3%	76.1%	48.1%	76.6%	44%
O.O.O.OO.OO.[K+].[OH-].[V].c1cnc2c(c1)ccc1cccnc12 [bpV(phen)]	28.8%	–	34.3%	34.7%	0.793%	2.7%	1.25%	3.48%	-3.57%	-2.96%	-4.6%	-7.01%	-0.0835	-0.163	3.97%	14.8%	17.7%	12.9%	1.06%	1.79%	16.4%	21%	6.92%	8.6%	-1.94%	-6.75%	3.08%	-21.9%
N=C(N)Nc1nc(-c2ccc(Cl)cc2)cs1 [n-[4-(4-Chlorophenyl)-1,3-thiazol-2-yl]guanidine]	3.6%	-2.59%	9.82%	14.3%	0%	0.108%	0.678%	2.58%	1.9%	-3.38%	-0.743%	0.262%	-0.638	-0.59	10.1%	17%	17.5%	17.3%	1.42%	1.64%	15.2%	21.5%	9.51%	8.48%	24%	14.5%	19.1%	31%
